Activity calls are given as the source filed them. The rule behind the calls is not given here.
target: glucose-6-phosphate dehydrogenase-6-phosphogluconolactonase (Plasmodium falciparum 3D7); assay: inhibition of P. falciparum G6PD activity – biochemical, kinetic NADPH detection, orthogonal assay, dose response (AID 540269); conditions: purified PfG6PD-6PGL

SMILES | IC50
Cc1ccc(/C=C/C(=O)Nc2ccc([N+](=O)[O-])c(NC(=O)/C=C/c3ccc(C)o3)c2)o1 | > 80 µM (inactive)
CCOc1ccc(CNc2ccc(N3CCCC3)cc2)cc1 | > 80 µM (inactive)
CN(C)c1ccc2nc3ccc(=O)cc-3sc2c1 | > 80 µM (inactive)
O=C(Nc1ccc(N2CCN(C(=O)c3ccco3)CC2)c(Cl)c1)c1cc2ccccc2o1 | 53.8 µM
O=S(=O)(Nc1ccccc1F)c1cccc(NC(=S)NCCN2CCOCC2)c1 | 50.2 µM
CC1CCc2[nH]c3ccc(C(=O)N(C)CC(=O)Nc4ccccc4C(F)(F)F)cc3c2C1 (stereo not drawn) | > 80 µM (inactive)
O=C(O)c1ccccc1NS(=O)(=O)c1cccc(-n2sc3ccccc3c2=O)c1 | 15.3 µM
COc1cc(N=c2ssnc2Cl)cc(OC)c1 | > 80 µM (inactive)
CCOc1ccc(S(=O)(=O)Nc2cc(SCC(=O)O)c(O)c3ccccc23)cc1 | 48.2 µM
O=[N+]([O-])c1cnc(Sc2ccncn2)c([N+](=O)[O-])c1 | 62.8 µM
COc1cc(-c2cc(OC)c(O)c(OC)c2)cc(OC)c1O | > 80 µM (inactive)
Cc1ccc(NC(=O)Cn2sc3nc(C)cc(C)c3c2=O)c(Cl)c1 | > 80 µM (inactive)
CCOc1ccccc1C=NNC(=O)CCCCC(=O)NN=Cc1ccccc1OCC | > 80 µM (inactive)
COc1cccc(C(=O)Nc2nnc(S(=O)(=O)N(C)Cc3ccccc3)s2)c1 | 18.6 µM
S=c1ncc2[nH]c(=S)[nH]c2[nH]1 | 64.4 µM
Cc1cc(C)c2sc(NC(=O)C3=COCCO3)nc2c1 | 30.2 µM
O=S(c1ccccc1O)S(=O)c1ccccc1O (stereo not drawn) | 36.4 µM
O=C(NCCCN1CCOCC1)c1sc2cc([N+](=O)[O-])ccc2c1Cl | 38.5 µM
N#Cc1ccc2sn(-c3ccccc3)c(=O)c2c1 | 14.8 µM
Cc1nnc(SCC(=O)c2cc(C)n(-c3ccc4c(c3)OCO4)c2C)s1 | > 80 µM (inactive)
CCOC(=O)Cc1csc(-n2sc3ccccc3c2=O)n1 | 31.3 µM
C=CCSc1nnc(NC(=O)c2ccc(Cl)nc2)s1 | > 80 µM (inactive)

SMILES | IC50
CC1CN(c2ccccc2)NC1=O (stereo not drawn) | > 80 µM (inactive)
CCn1c(=O)n(CC)c2cc(N3CCCC3)c(NC(=O)c3cccc(C)c3)cc21 | > 80 µM (inactive)
O=[N+]([O-])c1ccc(N/N=C/c2ccc(O)c(O)c2O)c(S(=O)(=O)N2CCOCC2)c1 | 75.5 µM
COc1ccc(OC)c2c1C(=O)C(Cl)=C(Cl)C2=O | 20.3 µM
COc1cccc(CNc2ccc3[nH]c(=O)[nH]c3c2)c1OCc1ccc(F)cc1 | > 80 µM (inactive)
COc1cccc(CNc2ccc3[nH]c(=O)[nH]c3c2)c1OCc1ccccc1Cl | > 80 µM (inactive)
CC1(C)CC2(CC(c3ccccc3F)c3ccc(O)c(O)c3O2)NC(=S)N1 (stereo not drawn) | 45.8 µM
Cc1ccc(-c2c(C(=O)N/N=C/c3ccsc3)nnn2-c2nonc2N)cc1 | 64.8 µM
Cn1c(=O)[nH]c(=O)c2c1[nH]c(=S)n2CCCc1ccccc1 | 43.7 µM
CN1C(=O)C(N=Nc2ccc([N+](=O)[O-])cc2)SC1=S (stereo not drawn) | > 80 µM (inactive)
COc1cccc(C=Nc2cc(C(C)C)c(O)cc2C)c1O | > 80 µM (inactive)
COC(=O)[C@H](CCSC)NC(=O)c1cc2c(cn1)[nH]c1ccccc12 | 20.2 µM
COc1cc(C(=O)O/N=C2/C=C(C)C(=O)C=C2C)cc(OC)c1OC | > 80 µM (inactive)
CC(CNc1ccccc1O)C(=O)O (stereo not drawn) | > 80 µM (inactive)
N#Cc1ccc(N=c2ssnc2Cl)cc1 | 53.7 µM
NNC(=O)CN1C(c2ccccc2Br)=Nc2ccc(Br)cc2C1c1ccccc1 (stereo not drawn) | 57.2 µM
Cc1ccc(Cl)cc1NC1=C/C(=N\S(=O)(=O)c2cccs2)c2ccccc2C1=O | > 80 µM (inactive)
COc1ccc(/C=C/c2nc3ccccc3n2C)cc1 | 17.7 µM
Cc1c(N=C2C=C(Br)C(=O)C(Br)=C2)c(=O)n(-c2ccccc2)n1C | > 80 µM (inactive)
O=c1[nH]nc(CNc2ccc(O)cc2)c2ccccc12 | > 80 µM (inactive)
CCOc1cc(NCc2ccccc2)c2ncn(C(C)C)c2c1 | > 80 µM (inactive)
COc1ccc(NC2CCCN(Cc3cccc4cnccc34)C2)cc1OC (stereo not drawn) | > 80 µM (inactive)

SMILES | IC50
CC(=O)Nc1cc(OC(C)=O)c2nonc2c1OC(C)=O | > 80 µM (inactive)
CCN=c1scc(C)n1/N=C/c1ccc(O)c(O)c1O | 39.2 µM
CCn1c([N+](=O)[O-])nc2c1c(=O)[nH]c(=O)n2C | > 80 µM (inactive)
COc1cc(C(=O)ON=C2C=C(C)C(=O)C(C)=C2)cc(OC)c1OC | > 80 µM (inactive)
COC(=O)CCC(=O)OC1(C)C(=O)C2=CN(C3CC3)C(c3ccc(OC)cc3)=CC2=C(Br)C1=O (stereo not drawn) | 45.8 µM
Oc1cc(CNCc2ccccc2)c(O)cc1CNCc1ccccc1 | 53.7 µM
O=C(O)C(Cc1ccccc1)N1C(=O)C=CC1=O (stereo not drawn) | 36.2 µM
O=C(CSc1nc2ccc(Cl)cc2[nH]1)NC1CCCc2ccccc21 (stereo not drawn) | > 80 µM (inactive)
COc1cc(C(=O)O/N=C2\C=CC(=O)C=C2C)cc(OC)c1OC | > 80 µM (inactive)
Cc1[nH]c2ccccc2c1/C=N/NC(=O)c1cccc(S(=O)(=O)Nc2ccccc2Cl)c1 | 59.3 µM
O=C1C(c2cc(=O)c3ccccc3[nH]2)=C(O)c2ccccc21 | > 80 µM (inactive)
O=S(=O)(Nc1cccc2cccnc12)c1ccccc1 | 20.9 µM
Cc1cc(N=NC(=O)c2ccccc2O)c2ccccc2c1O | > 80 µM (inactive)
CCOC(=O)CSc1nnc(NC(=O)c2cccc([N+](=O)[O-])c2)s1 | > 80 µM (inactive)
O=C(Nc1nnc(S(=O)(=O)N2CCOCC2)s1)c1cccc(Br)c1 | 60.2 µM
Nc1[nH]c(=O)[nH]c(=O)c1N=Cc1ccccc1 | 20.6 µM
COc1ccc(C(=O)c2c(C(F)(F)F)oc3c2C(=O)c2ccccc2C3=O)cc1 | > 80 µM (inactive)
O=C(Nc1nc(-c2ccncc2)cs1)C1COc2ccccc2O1 (stereo not drawn) | 22.4 µM
[O-]/[N+](=C\c1ccncc1)c1ccccc1 | > 80 µM (inactive)
Cc1ccc2nc(SCC(=O)NC3CCCc4ccccc43)[nH]c2c1 (stereo not drawn) | > 80 µM (inactive)
Cc1ccccc1N/C(SCc1cccc(Br)c1)=C(/C#N)C(N)=O | > 80 µM (inactive)
CCc1c(C(=O)Nc2ccccc2)c(C)[nH]c(=S)c1C#N | > 80 µM (inactive)

SMILES | IC50
CCc1cc(-c2n[nH]c(C)c2-c2ccccc2Cl)c(O)cc1OC | > 80 µM (inactive)
COc1cccc(-c2c(C(=O)N/N=C/c3ccc(C)s3)nnn2-c2nonc2N)c1 | 53.5 µM
C=CCOc1c(Cl)cc(CNc2ccc3[nH]c(=O)[nH]c3c2)cc1OC | > 80 µM (inactive)
Cc1ccc(S(=O)(=O)Nc2nc(C)c(C(=O)N/N=C/c3ccccc3)s2)cc1 | 31 µM
COc1ccc(CN(C)S(=O)(=O)c2nnc(NC(=O)c3cccc(C)c3)s2)cc1OC | 22.2 µM
O=C(N/N=C/c1cccc([N+](=O)[O-])c1)C(=O)N1CCCCCC1 | > 80 µM (inactive)
Cc1ccccc1-n1sc2cc(F)ccc2c1=O | 10.2 µM
NS(=O)(=O)c1ccc(-c2ccc(C=C3C(=O)NC(=O)NC3=O)o2)cc1 | 40.2 µM
CN(C)Cc1cc(O)c(CN(C)C)cc1O | 25.6 µM
COc1cc(NCc2ccccc2)c2ncn(C(C)C)c2c1 | > 80 µM (inactive)
O=c1[nH]sc2cc(F)ccc12 | 56.2 µM
CCN1CCCC1CNC(=O)c1ccc2c(c1)NC(=O)/C(=C\c1ccc(C)cc1)S2 (stereo not drawn) | 6.79 µM
CCOC(=O)c1c(C2COc3ccccc3O2)csc1NC(=O)c1ccco1 (stereo not drawn) | > 80 µM (inactive)
CN1CC[C@@]2(C)c3cc(O)ccc3N(C)[C@@H]12 | 46.7 µM
Nc1cc(N)c(OCC(F)(F)F)cc1OCC(F)(F)F | > 80 µM (inactive)
Cc1ccc(S(=O)(=O)N(C(=O)c2ccncc2)c2ccc(OC(=O)c3ccncc3)c3ccccc23)cc1 | 55.7 µM
CC(C)Cn1c([N+](=O)[O-])nc2c1c(=O)[nH]c(=O)n2C | > 80 µM (inactive)
CN1CCc2cc(O)cc3c2[C@H]1Cc1ccc(O)c(O)c1-3 | > 80 µM (inactive)
Cc1ccc(N2CC(C(=O)OCC(=O)c3ccc([N+](=O)[O-])cc3)CC2=O)cc1 (stereo not drawn) | > 80 µM (inactive)
COc1ccc(N2CSC3=C(C#N)C(c4cc(OC)c(OC)cc4OC)CC(=O)N3C2)c(OC)c1 (stereo not drawn) | > 80 µM (inactive)
O=C(COc1ccccc1F)OCC(=O)c1ccc([N+](=O)[O-])cc1 | > 80 µM (inactive)
O=C(Nc1nnc(C2CC2)s1)c1ccc(Cl)nc1 | 70.1 µM

SMILES | IC50
C=CCN1C=C2C(=O)C(C)(OC(=O)CCC(=O)OC)C(=O)C(Br)=C2C=C1c1ccc(OC)cc1 (stereo not drawn) | > 80 µM (inactive)
COc1ccccc1N1C(=O)C=C(Sc2nc(C)cc(C)n2)C1=O | > 80 µM (inactive)
O=C(CSc1nc2cc(Cl)ccc2s1)c1ccco1 | > 80 µM (inactive)
O=C(CNC(=O)c1ccc(Br)cc1)NCC(=O)OCC(=O)c1ccc([N+](=O)[O-])cc1 | > 80 µM (inactive)
COc1ccc(/C=C/c2nc3ccccc3n2Cc2ccc(OC)c(OC)c2)cc1 | 51.1 µM
Cc1ccc(NC(=O)c2cc(N3C(=O)C=CC3=O)ccc2N2CCOCC2)cc1 | > 80 µM (inactive)
O=C(Cn1sc2ccccc2c1=O)Nc1ccccc1 | 14.3 µM
O=c1c2ccccc2sn1-c1cccc(Cl)c1 | 14.2 µM
Cc1ccc(S(=O)c2ccc([N+](=O)[O-])c3nonc23)cc1 (stereo not drawn) | > 80 µM (inactive)
C=CCc1c(C)[nH]c(=S)c(C#N)c1C | > 80 µM (inactive)
CCOc1ccccc1CNc1ccc(O)cc1 | 46.7 µM
Cc1ccc(Nc2cc(C)c(O)c(C)c2)cc1 | > 80 µM (inactive)
COc1cc(/C=C2\CC/C(=C\c3cc(OC)c(O)c(OC)c3)C2=O)cc(OC)c1O | > 80 µM (inactive)
Cc1cc(C)c2c(=O)n(CC(=O)Nc3ccc(Br)c(C)c3)sc2n1 | 58.5 µM
O=C(Cn1sc2ccccc2c1=O)Nc1ccc(Cl)cc1 | 16 µM
O=C(CCl)NCCN1C(=O)S/C(=C\c2cccnc2)C1=O | > 80 µM (inactive)
CCc1ccc(OCC(=O)N/N=C/c2cc([N+](=O)[O-])ccc2N2CCOCC2)cc1 | > 80 µM (inactive)
Clc1nssc1=Nc1nncs1 | 33.4 µM
Cc1ccc(SC2=C(Sc3ccc(C)cc3)C(=O)c3ccccc3C2=O)cc1 | 34.7 µM
COc1cc(N)c2ncccc2c1Cl | 45.8 µM
